Biological target: T1, GID4 (Uniprot ID: Q81VV7, residues 124-289) (Homo sapiens, UniProt Q8IVV7)
T1 construct: GID4 (Uniprot ID: Q81VV7, residues 124-289)
T1 sequence (Q8IVV7 124-289): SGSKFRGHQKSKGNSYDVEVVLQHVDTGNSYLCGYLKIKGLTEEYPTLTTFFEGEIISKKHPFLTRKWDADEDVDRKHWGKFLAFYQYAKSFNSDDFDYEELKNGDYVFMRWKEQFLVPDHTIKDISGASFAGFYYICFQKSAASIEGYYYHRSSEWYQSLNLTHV
Assay: GID4 competitive binding assay (AlphaScreen, GID4/degron peptide PGLW)
Settings: 24 nM GID4, 48 nM biotinylated degron peptide PGLW, 4° C., read-out: IC50 (Inhibition of GID4/Degron binding by test compounds)
Method in brief: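 Displacement of biotin-tagged degron tetrapeptide PGLW (48 nM) from C-terminally 6His-tagged GID4 124-289 (24 nM) read by AlphaScreen proximity signal. Compound incubation 2 h, then beads 1 h, all at 4 °C, pH 7.5, 2% DMSO final; background-corrected inhibition fitted with variable slope for IC50.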

IC50 [µM]	Structure (SMILES)
< 0.5	CC(C)c1cc(N2CCNC(c3cc(O)ccc3Br)C2)nc(N)n1 (centres unmarked) [Compound 163, 3-(4-(2-amino-6-isopropylpyrimidin-4-yl)piperazin-2-yl)-4-bromophenol]
0.5 to 5	CC(C)c1cc(N2CCCC(n3c(=O)[nH]c4ccccc43)C2)nc(N)n1 (centres unmarked) [Compound 252, 1-(1-(2-amino-6-isopropylpyrimidin-4-yl)piperidin-3-yl)-1,3-dihydro-2H-benzo[d]imidazol-2-one]
0.5 to 5	Nc1cc(N2CCNC(c3cnc4ccccn34)C2)nc(N)n1 (racemic) [Compound 120, (R/S)-6-(3-(imidazo[1,2-a]pyridin-3-yl)piperazin-1-yl)pyrimidine-2,4-diamine]
0.5 to 5	CCOc1ccc(Br)c(C2CN(c3cc(C(C)C)nc(N)n3)CCN2)c1 (single isomer, unassigned) [Compound 26, (S/R)-4-(3-(2-bromo-5-ethoxyphenyl)piperazin-1-yl)-6-isopropylpyrimidin-2-amine]
0.5 to 5	O=C(c1ccc(-c2cc(O)c3ncccc3c2)cc1)N1CCCC1 [Compound 301, (4-(8-hydroxyquinolin-6-yl)phenyl)(pyrrolidin-1-yl)methanone]
< 0.5	CN(C)CCCNC(=O)c1c(Cl)cc(-c2cc(O)c3ncccc3c2)cc1Cl [Compound 318, 2,6-dichloro-N-(3-(dimethylamino)propyl)-4-(8-hydroxyquinolin-6-yl)benzamide]
< 0.5	CN1CCN(c2cc(NC3CC3)nc(N)n2)CC1c1ccccc1Br (centres unmarked) [Compound 101, 6-(3-(2-bromophenyl)-4-methylpiperazin-1-yl)-N4-cyclopropylpyrimidine-2,4-diamine]
0.5 to 5	CN(C)CCCNC(=O)c1n[nH]c2ccc(-c3ccc4ncnc(N)c4c3)cc12 [Compound 330, 5-(4-aminoquinazolin-6-yl)-N-(3-(dimethylamino)propyl)-1H-indazole-3-carboxamide]
< 0.5	CC(C)c1nc(N)cc(N2CCCC(c3cnc4ccccn34)C2)n1 (single isomer, unassigned) [Compound 142, R or S-6-(3-(imidazo[1,2-a]pyridin-3-yl)piperidin-1-yl)-2-isopropylpyrimidin-4-amine]
0.5 to 5	Cn1nccc1-c1cc(N2CC3CC(C2)N3)nc2c(-c3cc[nH]n3)nccc12 [Compound 365, 3-(4-(1-methyl-1H-pyrazol-5-yl)-8-(1H-pyrazol-3-yl)-1,7-naphthyridin-2-yl)-3,6-diazabicyclo[3.1.1]heptane]
0.5 to 5	Nc1cc(N2CC[C@H](O)[C@@H](c3ccccc3Br)C2)nc(N)n1 (relative stereo) [Compound 222, (3,4-trans)-3-(2-bromophenyl)-1-(2,6-diaminopyrimidin-4-yl)piperidin-4-ol]
0.5 to 5	O=C(c1cccc(-c2ccc3c(=O)[nH]ccc3c2)c1)N1CCCC1 [Compound 352, 6-(3-(pyrrolidine-1-carbonyl)phenyl)isoquinolin-1(2H)-one]
0.5 to 5	CNc1cc(N2CCN[C@@H](c3ccccc3)C2)nc(N)n1 (racemic) [Compound 129, (S/R)-N4-methyl-6-(3-phenylpiperazin-1-yl)pyrimidine-2,4-diamine]
> 5	Cc1cc(N2CCCC(c3ccn[nH]3)C2)nc(N)n1 (centres unmarked) [Compound 209, 4-(3-(1H-pyrazol-5-yl)piperidin-1-yl)-6-methylpyrimidin-2-amine]
> 5	Nc1nc(N2CCCC(c3ccn[nH]3)C2)c2[nH]cnc2n1 (centres unmarked) [Compound 207, 6-(3-(1H-pyrazol-5-yl)piperidin-1-yl)-7H-purin-2-amine]
> 5	Nc1nc(NCC2CC2)cc(N2CCOC(c3ccccc3Br)C2)n1 (single isomer, unassigned) [Compound 77, R or S-6-(2-(2-bromophenyl)morpholino)-N^4-(cyclopropylmethyl)pyrimidine-2,4-diamine]
< 0.5	CC(C)c1nc(N2CCCC(c3cnc4ccccn34)C2)c2cc[nH]c2n1 (centres unmarked) [Compound 374, 4-(3-(imidazo[1,2-a]pyridin-3-yl)piperidin-1-yl)-2-isopropyl-7H-pyrrolo[2,3-d]pyrimidine]
0.5 to 5	Nc1nccc2ccc(-c3ccc4[nH][nH]c(=O)c4c3)cc12 [Compound 1, 5-(1-aminoisoquinolin-7-yl)-1,2-dihydro-3H-indazol-3-one]
< 0.5	Nc1nccc2ccc(-c3ccc4[nH]nc(C(=O)N5CCC(O)CC5)c4c3)cc12 [Compound 336, (5-(1-aminoisoquinolin-7-yl)-1H-indazol-3-yl)(4-hydroxypiperidin-1-yl)methanone]
0.5 to 5	CNc1cc(N2CCN(C)[C@H](c3ccccc3Br)C2)nc(N)n1 (stereo in doubt) [Compound 154]
> 5	Nc1nc(NC2CC2)cc(N2CCNC(c3ccccc3Br)C2)n1 (single isomer, unassigned) [Compound 121, (R/S)-6-(3-(2-bromophenyl)piperazin-1-yl)-N4-cyclopropylpyrimidine-2,4-diamine]

IC50 [µM]	Structure (SMILES)
0.5 to 5	Nc1cc(N2CCC(c3cnc4ccccn34)C2)nc(N)n1 (centres unmarked) [Compound 255, 6-(3-(imidazo[1,2-a]pyridin-3-yl)pyrrolidin-1-yl)pyrimidine-2,4-diamine]
> 5	Nc1nccc2ccc(-c3csc(C(=O)N4CCCC4)c3)cc12 [Compound 349, (4-(1-aminoisoquinolin-7-yl)thiophen-2-yl)(pyrrolidin-1-yl)methanone]
> 5	Nc1cc(N2CCCC(c3cnc4ncccn34)C2)nc(N)n1 (centres unmarked) [Compound 241, 6-(3-(imidazo[1,2-a]pyrimidin-3-yl)piperidin-1-yl)pyrimidine-2,4-diamine]
< 0.5	CN(C)CCCNC(=O)Cc1ccc(-c2cc(O)c3ncccc3c2)cc1 [Compound 288, N-(3-(dimethylamino)propyl)-2-(4-(8-hydroxyquinolin-6-yl)phenyl)acetamide]
> 5	Nc1nc(C2CC2)cc(N2CCNC(c3cnc4ccccn34)C2)n1 (single isomer, unassigned) [Compound 104, (R/S)-4-cyclopropyl-6-(3-(imidazo[1,2-a]pyridin-3-yl)piperazin-1-yl)pyrimidin-2-amine]
0.5 to 5	CC(C)c1cc(N2CCCC(c3nnc4ccccn34)C2)nc(N)n1 (centres unmarked) [Compound 194, 4-(3-([1,2,4]triazolo[4,3-a]pyridin-3-yl)piperidin-1-yl)-6-isopropylpyrimidin-2-amine]
0.5 to 5	Nc1nc(N2CCNC(c3ccccc3Br)C2)c2cc[nH]c2n1 (single isomer, unassigned) [Compound 56, (R/S)-4-(3-(2-bromophenyl)piperazin-1-yl)-7H-pyrrolo[2,3-d]pyrimidin-2-amine]
> 5	NC(=O)CCC1CCCN(c2nc(N)nc3c2CSC3)C1 (centres unmarked) [Compound 201, 3-(1-(2-amino-5,7-dihydrothieno[3,4-d]pyrimidin-4-yl)piperidin-3-yl)propanamide]
0.5 to 5	CNc1cc(N2CCNC(c3csc4ccccc34)C2)nc(N)n1 (centres unmarked) [Compound 102, 6-(3-(benzo[b]thiophen-3-yl)piperazin-1-yl)-N4-methylpyrimidine-2,4-diamine]
< 0.5	COc1cc(CNC(=O)c2n[nH]c3ccc(-c4ccc5ccnc(N)c5c4)cc23)ccn1 [Compound 326, 5-(1-aminoisoquinolin-7-yl)-N-((2-methoxypyridin-4-yl)methyl)-1H-indazole-3-carboxamide]
0.5 to 5	Cc1c(-c2ccc(C(=O)NCCCN(C)C)cc2)cc(O)c2ncccc12 [Compound 319, N-(3-(dimethylamino)propyl)-4-(8-hydroxy-5-methylquinolin-6-yl)benzamide]
> 5	CN(C)C1CCN(C(=O)c2cccc(-c3ccc4c(=O)[nH]ccc4c3)c2)C1 (centres unmarked) [Compound 350, 6-(3-(3-(dimethylamino)pyrrolidine-1-carbonyl)phenyl)isoquinolin-1(2H)-one]
< 0.5	Nc1cc(N2CCNC(c3ccccc3Br)C2)nc(N)n1 (centres unmarked) [Compound 172, 6-(3-(2-bromophenyl)piperazin-1-yl)pyrimidine-2,4-diamine]
0.5 to 5	Nc1nc(NC2CC2)c(Cl)c(N2CCNC(c3ccccc3Br)C2)n1 (centres unmarked) [Compound 63, 6-(3-(2-bromophenyl)piperazin-1-yl)-5-chloro-N4-cyclopropylpyrimidine-2,4-diamine]
> 5	CC(C)c1cc(N2CCCC(c3nc4ccccc4[nH]3)C2)nc(N)n1 (centres unmarked) [Compound 181, 4-(3-(1H-benzo[d]imidazol-2-yl)piperidin-1-yl)-6-isopropylpyrimidin-2-amine]
> 5	Nc1cc(N2CCCC(n3ncc4ccccc43)C2)nc(N)n1 (centres unmarked) [Compound 89, 6-(3-(1H-indazol-1-yl)piperidin-1-yl)pyrimidine-2,4-diamine]
< 0.5	CN(C)CCNC(=O)c1ccc(-c2cc(O)c3ncnc(N)c3c2)cc1 [Compound 267, 4-(4-amino-8-hydroxyquinazolin-6-yl)-N-(2-(dimethylamino)ethyl)benzamide]
0.5 to 5	CN(C)CCCNC(=O)C1CC=C(c2cc(O)c3ncccc3c2)CC1 (centres unmarked) [Compound 305, N-(3-(dimethylamino)propyl)-4-(8-hydroxyquinolin-6-yl)cyclohex-3-ene-1-carboxamide]
> 5	CC(=O)N1CCN(c2cc(N)nc(N)n2)C[C@H]1c1ccccc1Br (stereo in doubt) [Compound 60, (R/S)-1-(2-(2-bromophenyl)-4-(2,6-diaminopyrimidin-4-yl)piperazin-1-yl)ethan-1-one]
> 5	Cc1nc(N)nc(N2CCCC(c3ccn[nH]3)C2)c1Br (centres unmarked) [Compound 216, 4-(3-(1H-pyrazol-5-yl)piperidin-1-yl)-5-bromo-6-methylpyrimidin-2-amine]
